Melting point data for 87 compounds are collected here from a melting point compilation (Tetko et al.; mined from patent text by program, amines drawn as free bases though some values may be those of a salt).

Turning to `CCOCc1cncc(-c2ccc3c(c2)nc(N)c2nc(COCC)n(CC(C)(C)O)c23)c1`, the melting point (as a rule, the temperature, or range, at which the solid turns liquid) stood at 156 °C.

The compound `CSC1CC(=O)N1Cc1ccccc1` (configuration not stated) yielded a melting point of 26 to 28 °C. Take `FC(F)(F)CN1CCC(n2ccc3ccccc32)CC1`: the melting point fell in the range of 79 to 81 °C. Take `CCC1CC(=O)C2(C)CCC3c4ccc(OC)cc4CCC3C12` (configuration not stated): the melting point fell in the range of 125 to 129 °C. `CN(N)C(=O)c1ccc(O)c(O)c1` came in with a melting point of 202 to 205 °C. For the compound `O=C(Nc1cnc2sc(CO)nc2c1)c1cc2cc(C(F)(F)F)ccc2n1Cc1nccs1`, the melting point was in the range of 282 to 283 °C. Consider `CCOC(=O)c1cccc(-c2nc(-c3ccc(C(C)(C)C)cc3)cs2)c1`, for which the melting point lay within 96 to 97 °C. Regarding `Cc1cnc2c(NC(=O)c3c(Cl)cccc3Cl)cccc2c1-n1ccnc1`, the melting point lay in the range of 224 to 228 °C. For `CCn1ccc(=O)c2cnc(-c3ccc(O)cc3)nc21` the value was 320 to 324 °C; for `OC1(c2ccc(C(F)(F)F)cc2)CCN(CCCc2noc3cc(F)ccc23)CC1`, 150 to 152 °C; for `CCC(Cc1cc(C(C)(C)C)c(O)c(C(C)(C)C)c1)(C(=O)OCC1(C)C(C)(C)C=C(O)CC1(C)C)C(=O)OCC1(C)C(C)(C)C=C(O)CC1(C)C` (configuration not stated), 166 °C. For `FC(F)(F)Oc1ccc(C=CC(C=Cc2ccc(OC(F)(F)F)cc2)=NNC2=NCCCCN2)cc1` the value was 184 to 186 °C. The compound `CCOC(=O)c1cccc(N)c1NCc1ccc(-c2ccccc2C#N)cc1` had a melting point of 104 to 105 °C. The value for `CNC(=O)C(=NOC)c1cccc(Cl)c1COc1ccc(Sc2ccc(Cl)cc2)cn1` was 116 to 118 °C; that for `Brc1ccc(N(Cc2ccccc2)c2ccccc2)cc1` was 97 to 98 °C; that for `Cc1ccccc1S(=O)(=O)NC(=O)Nc1cc(C)c(S(=O)(=O)C[N+](=O)[O-])c(C)c1` was 194 to 196 °C. On to `N#CC(C(=O)Nc1ccccc1)C(=O)c1ccc[nH]1` (configuration not stated), for which the melting point lay within 207 to 209 °C. The value for `Cc1nc2ccccn2c(=O)c1CCN1CC[C@H](Nc2nc3ccccc3n2Cc2ccc(F)cc2)[C@H](C)C1` (relative stereo) was 161 °C; that for `Cc1ccc(S(=O)(=O)OCC2COc3ccc4nc(C)oc4c3O2)cc1` (configuration not stated) was 123 °C; that for `Cc1ccc(S(=O)(=O)c2nc(C(N)=O)n[nH]2)cc1` was 148 to 150 °C. `CC(CO)Nc1cc(Oc2nn(C)c(C(F)(F)F)c2Cl)ccc1N` (configuration not stated) showed a melting point of 110 to 112 °C. In the case of `CC(C)(C)[Si](C)(C)Oc1ccc2c(c1)OC(O)c1c-2sc2cc(O[Si](C)(C)C(C)(C)C)ccc12` (configuration not stated), the melting point lay in the range of 162 to 164 °C. For `CCn1ncc2c(NCc3ccc(C#N)cc3)c3ccccc3nc21`, the melting point was 233 to 234 °C. In the case of `CS(=O)C1=NS(=O)(=O)c2cc(Cl)ccc2N1` (configuration not stated), the melting point is 260 to 261 °C. Turning to `CC(CO)(CO)NCc1c2ccc3ccccc3c2cc2ccsc12`, the melting point fell in the range of 212 to 215 °C. `CCOC(=O)c1c(O)ccc(Cc2c[nH]cn2)c1C`: the melting point fell in the range of 42 to 45 °C.

In turn, `Nc1ccc(C(=O)c2ccccn2)cc1[N+](=O)[O-]` had a melting point of 186 to 187 °C.

`O=C(CCCCc1ccccc1)N[C@H](Cc1ccc(C(F)(F)F)cc1)[C@@H](O)c1ccc(F)cc1` (racemic): the melting point lay within 152 to 153 °C.

For the compound `Cc1cc(C)c2c(c1C)OC(C)(C)C2c1ccccc1` (configuration not stated), the melting point lay within 86 to 87 °C. Compound `CC(Cc1c[nH]c2ccccc12)(NC(=O)OC12CC3CC(CC(C3)C1)C2)C(=O)O` (racemic) came in with a melting point of 206 to 218 °C. `C(=C1c2ccccc2-c2ccccc21)c1nc(COc2ccc(CCCn3ccnc3)cc2)co1`: the melting point was in the range of 116 to 117 °C. The value for `CCOC(=O)CNc1ccc(C2=NNC(=O)NC2C)cc1` (configuration not stated) was 180 to 182 °C; that for `COc1ccc(C2COc3cc(OC(=O)C(C)(C)C)ccc3C2(O)Cc2ccc(OCc3ccccc3)cc2)cc1` (configuration not stated) was 104 to 111 °C; that for `Cc1csc2ccc(C3CCN(Cl)CC3)cc12` was 57 to 61.5 °C. In turn, `COC(=O)Cc1ccc(OCC2CN(c3ccc(C(=N)N)cc3)C(=O)O2)cc1` (configuration not stated) returned a melting point of 151 to 152 °C. The value for `Cc1nc2sc3cc(F)ccc3n2c1CO` was 230 to 235 °C; that for `CN1CCN(C(=O)NC(CS)Cc2ccccc2)CC1` (single isomer, unassigned; (-)) was 68 to 70 °C; that for `CCCCNc1ccn2nccc2n1` was 75 to 76 °C. In the case of `O=[N+]([O-])c1ccc(S(=O)(=O)Nc2ccc(F)cc2)c([N+](=O)[O-])c1`, the melting point lay in the range of 127 to 128 °C. Consider `O=[N+]([O-])c1cc(Cl)cc(C(c2cc(Cl)cc([N+](=O)[O-])c2O)C(F)(F)F)c1O`, for which the melting point stood at 135 °C. In turn, `Cc1ccc2c(C(C)C(=O)O)cc(=O)[nH]c2c1` (configuration not stated) had a melting point of 209 to 210 °C.

`OCC(O)Cc1nccn1CCCCc1ccc(OCc2coc(/C=C/c3ccc(F)cc3F)n2)cc1` (configuration not stated) had a melting point of 126 to 128 °C. The compound `COc1ccc(-c2[nH]cnc2-c2cc(OC)c([N+](=O)[O-])c(OC)c2)cc1O` had a melting point of 148 to 149 °C. `COC(=O)c1ccc(CCCCc2c(N)nc(N)nc2O)cc1`: the melting point fell in the range of 203 to 205 °C. In the case of `COC(OC)C(=O)NC(Cc1ccccc1)c1ccccc1` (configuration not stated), the melting point lay in the range of 108 to 110 °C. As for `C#CCSc1ncn(C(=O)N(CC)CC)n1`, the melting point lay within 67 to 69 °C. Compound `C1=NCc2cncn2-c2ccccc21` came in with a melting point of 150 to 151 °C. For `O=C1Nc2ccccc2C12COc1cc3c(cc12)CCO3` (configuration not stated) the value was 105 to 107 °C; for `COc1ccc(Nc2nc3ccccc3c3[nH]c(C4CCCC4)nc23)cc1`, 106 to 107 °C. For `CCCn1nc2c(N)nc3ccccc3c2c1CC(C)(C)C(N)=O` the value was 224 to 225 °C; for `NS(=O)(=O)c1ccc(-n2nc(CCl)cc2-c2ccc(Cl)cc2)cc1`, 198 to 201 °C; for `CC1(c2ccccc2)C(=O)Nc2cc(Br)cc(Br)c2C1=O` (configuration not stated), 256 to 257 °C. In the case of `C=CCOc1ccc(C(C)(C)C)cc1C(C(N)=O)c1ccccc1` (configuration not stated), the melting point lay in the range of 172 to 174 °C. On to `COc1cccc2cc(C(=O)c3ccc(Cl)c([N+](=O)[O-])c3)oc12`, for which the melting point came to 136 °C.

As to `CCCN(CCC)C(=O)n1ccc(S(=O)(=O)c2c(C)cc(C)cc2C)n1`, the melting point lay in the range of 64 to 65 °C.

`Fc1cc(F)cc(Cc2cccnc2S)c1` yielded a melting point of 195 to 197 °C. The compound `CCCc1nn(-c2ccc(C(F)(F)F)cn2)cc1CCCOc1c(C#N)cccc1CC(=O)O` registered a melting point of 146 to 147 °C. Compound `Cc1n[nH]c(C)c1[C@H](C)NC(=O)COc1cc(C(F)(F)F)c2c(-c3ccccc3)nn(C)c2n1` came in with a melting point of 145 to 147 °C. The compound `CCCCCCCCCCC(C)(C)NC(=O)Nc1cc(OC)cc(C(C)(C)C)c1O` registered a melting point of 99 to 102 °C.

Compound `COC(=O)CC(=O)c1cc(OC)c2c(c1)OCO2` displayed a melting point of 65.5 to 66.5 °C. Compound `CCCNC(=S)NS(=O)(=O)c1cc2c(cc1OC)OCC(NC(=O)c1cc(Cl)ccc1OC)C2` (configuration not stated) yielded a melting point of 182 °C.

`Cc1ccc(N=C(N(Cc2ccccc2)C2CCCCC2)N(Cc2ccccc2)C2CCCCC2)cc1` yielded a melting point of 128 to 130 °C.

The compound `CCn1c(CCO)nc(C2CC2)c1Sc1cc(C#N)cc(C#N)c1` had a melting point of 122 to 124 °C. `CNC(=O)ON=C1SCOC1COC` (configuration not stated) returned a melting point of 105 to 106 °C. As to `NC(Cc1cc(CP(=O)(O)O)cc(-c2ccc(Cl)cc2)c1)C(=O)OCC=Cc1ccccc1` (configuration not stated), the melting point lay within 253 to 255 °C. `O=C(/C=C/c1cccc([N+](=O)[O-])c1)N1CCN(C(=O)c2cc(C(F)(F)F)cc(C(F)(F)F)c2)[C@H](Cc2c[nH]c3ccccc23)C1` gave a melting point of 127 to 133 °C. `O=C(c1ccccc1)N1CCSc2cccc(Cl)c2C1` showed a melting point of 64 to 72 °C. In turn, `COc1c(Cl)ccc(-c2nc(C(=O)OCc3ccccc3)c(Cl)c(N)c2F)c1F` displayed a melting point of 132 to 133 °C. `COc1ccc(CN2CCOCC2)c(OC)c1-c1ccc(C[C@H](NC(=O)c2c(Cl)cccc2Cl)C(=O)O)cc1` came in with a melting point of 241 to 242 °C. Compound `CNS(=O)(=O)c1cc(C2(O)CCC(=O)N2C)ccc1Cl` (configuration not stated) displayed a melting point of 147 to 150 °C.

In turn, `N#C[C@@H]1CCCN1C(=O)CCl` registered a melting point of 53 to 57 °C. `CNc1nc(NN)ncc1C#N`: the melting point is 247 to 249 °C. Compound `OCC1=C(c2cc3c(Cl)cccc3s2)N2CCN=C2S1` had a melting point of 170 to 172 °C. On to `CC(=O)S[C@@H](CCN1C(=O)CCC1=O)C(=O)O`, for which the melting point was 110 to 112 °C. Consider `CCOP(=O)(CCN1CCC(N(NCCN2CCCC2)S(=O)(=O)c2ccc(Nc3nccc(Nc4ccc(F)cc4)n3)cc2)CC1)OCC`, for which the melting point was 85 °C.

For the compound `Cc1cncc(-c2ccc3c(=O)c(C(=O)O)cn(C4CC4)c3c2C)c1`, the melting point is 232 °C. The value for `CC(C)(C)Sc1ccc(CC=CN(O)C(N)=O)s1` was 111 to 113 °C; that for `O=C(Cn1c(Cl)ccc1Cl)N=C1NCCN1` was 225 °C; that for `C[C@@H]([C@@H](O)c1ccc(OCc2ccccc2)cc1)N1CCC(O)(c2ccccc2)CC1` was 158 to 161 °C. As to `O=C(c1ccccc1)C1CCN(Cc2cncc(-c3ccccc3)c2)CC1`, the melting point is 91 to 93 °C. `COc1ccc2c(c1)c(CC(=O)OCC(=O)O)c(C)n2C(=O)c1c(F)cccc1F` gave a melting point of 186 °C. The value for `CC(C)NCC(O)COC1c2ccccc2C(=O)N1c1ccccc1` (configuration not stated) was 92 °C; that for `CCOC(=O)N[C@@H](C(=O)O)c1ccccc1` was 143 to 150 °C; that for `O=C(O)c1cn(-c2cnsn2)c2c(F)c(F)c(F)cc2c1=O` was 205 to 207 °C. Take `CN1C(=O)CC[C@]2(C)c3ccc(-c4ccc(F)cc4C(F)(F)F)cc3CC[C@@H]12`: the melting point stood at 70 °C. On to `Cc1c(S(N)(=O)=O)c(-c2nnc(S)o2)nn1C`, for which the melting point was 243 to 245 °C. Take `CS(=O)(=O)N1CCN(Cc2ccccc2)CC1`: the melting point lay in the range of 115 to 116 °C.
